Experimental data taken from patent US20200255487A1, “A Cell-Based Seeding Assay for Huntingtin Aggregation” (THE REGENTS OF THE UNIVERSITY OF CALIFORNIA, priority 2017, published 2020).

Tested on: HTT-ΔN17-46Q-GFP
Test: cell-based HTT seeding assay (ΔN17-1E cells)
Parameters: species or system human
Settings: for induction of intracellular HTT-ΔN17-46Q-GFP aggregation by extracellularly applied seeds: ΔN17-1E (HEK293) cells, substance applied as seed, FIG. 4
Source text: Described herein is the development of a cell-based HTT seeding assay. A DNA construct encoding Exon1 of mutant human HTT with a 46 polyQ repeat was designed (FIG. 1C). This mutant HTT was engineered to delete amino acid residues 2-16 and was fused with a green fluorescent protein (GFP) at its C-terminus, named HTT-ΔN17-46Q-GFP hereafter. The HTT-ΔN17-46Q-GFP was then cloned into a pcDNA3 vector and transfected into HEK293 cells. Clones of stably transfected cells expressing HTT-ΔN17-46Q-GFP were selected to generate individual cell lines. Expression of the transgene in the cell lines was characterized to confirm its morphology, expression level and subcellular localization. Line 1E, named ΔN17-1E cells, was selected based on it moderate transgene expression with minimal protein aggregates at the baseline. Based on this cell line, a cell-based HTT seeding assay was developed. Extracellular application of preformed HTT aggregates or biosamples from HD patients as “seeds”, to ΔN17-1E cells could induce intracellular aggregation of HTT-ΔN17-46Q-GFP proteins (FIG. 1 through FIG. 3). This seeding-induced aggregation event is similar to in vitro HTT aggregation, which preformed aggregates, or seeds, nucleates and facilitates the aggregation of HTT exon 1 monomers. Moreover, this activity is specific to utilizing aggregates of polyQ proteins since neither aggregates of β-amyloid and Tau nor biosamples from AD and PD patients could elicit HTT-ΔN17-46Q-GFP aggregation (FIG. 4). The level of induced aggregates positively correlates with the amount of recombinant seeds added. Importantly, the seedability of the biosamples also correlates with the disease stage of the patients. Currently, the assay has been optimized to be performed in a high-throughput format, making it more capable with large quantity of samples. Thus, this cell-based seeding assay could be extremely useful for detecting seedible species in the biosamples, which is shown by us to increase as the disease progressing, and thus could be used as a biomarker for HD diagnosis and clinical trials, as well as for drug discovery.

Row | Substance | HTT-ΔN17-46Q-GFP aggregation induced by HD CSF, with overexpression (ΔN17 cells, overexpression by transit transfection, induced by HD CSF, FIG. 10) | HTT-ΔN17-46Q-GFP aggregation induced by preformed mHTT-exon1 seeds, with overexpression (ΔN17 cells, overexpression by transit transfection, induced by preformed mHTT-exon1 seeds, FIG. 10) | induction of intracellular HTT-ΔN17-46Q-GFP aggregation by extracellularly applied seeds
1 | DNAJB6: DNAJB6 of the Hsp40 family, overexpressed in ΔN17 cells by transit transfection | dramatically reduced | dramatically reduced | –
2 | phosphorylated tau: phosphorylated tau used as non-HTT seed control [reference compound] | – | – | did not elicit the aggregation
3 | fibrillar Aβ: fibrillar Aβ used as non-HTT seed control [reference compound] | – | – | did not elicit the aggregation
